Here are results for 5 compounds from article PMC5838147, “Modulation of Oral Bioavailability and Metabolism for Closely Related Cyclic Hexapeptides” (International Journal of Peptide Research and Therapeutics, 2017).

Values after ≈ are worked out from the molar mass of the structure shown. Read-outs that look alike come from different tables or passages of the source. Where a SMILES comes first, the peptide text is derived from it. [ ]: non-standard residue; d: D form. NMeY = CN[C@@H](Cc1ccc(O)cc1)C(=O)O; NMeL = CN[C@@H](CC(C)C)C(=O)O; dNMeL = CN[C@H](CC(C)C)C(=O)O; Abu = CC[C@H](N)C(=O)O

Data set [1] can be described thus: Supercritical fluid chromatography (SFC) retention, exposed polarity. The data set is classed as physicochemical. As to conditions: Chirex 3014 column, reflects exposure of polar groups. From the text:
Conditions for analytical supercritical fluid chromatography (SFC) were taken from previous publications (Goetz et al. [2014a], [b]). The Pirkle chiral stationary phase Chirex 3014, a silica bonded (S)-valine and (R)-1-(α-naphthyl)ethylamine with a urea linkage, was selected. A mobile phase of 15% methanol in supercritical CO2 enabled adequate separation in combination with a low-slope gradient. High retention times were mitigated by increasing the percentage of methanol in the eluent and the addition of the relatively weak salt pair ammonium formate. In the resulting chromatographic system, differences in retention depend upon hydrophobic interactions, the ability for hydrogen bonding, the presence of dipoles, and van der Waals interactions of the solutes with the stationary phase (Goetz et al. [2014a], [b]).
Next, we applied SFC-analysis to compare calculations related to polar surface area with experimentally derived data. […] Thus, calibrated SFC retention times can be compared to the SAPSA values obtained from molecular dynamics. […] As a result, shielding of polar atoms under SFC conditions is realized most optimally in the Abu derivative (4) leading to a short retention time of 2.7 min. […] However, in this case the best permeability was attributed to the Phe analogue. […] However, most likely in the case of peptide (5), for which the MDCK assay is not aligned with PAMPA and SFC, the low predictability for oral uptake would have excluded this candidate from an in vivo experiment. Taking into account the in vitro profiling, it seems possible to identify cyclic peptides with good permeability and solubility.

For data set [2] the following is noted: plasma.
Procedure: (§1) The values relate to single experiments. […] This has been estimated by looking at independent replicates across the assay dynamic range.
(§2) In order to make predictions of pharmacokinetic properties of these cyclic peptides, further in vitro evaluation was carried out to determine plasma-protein binding (PPB) and metabolic stability in mouse liver microsomes (MLM). […] In order to predict clearance in vivo, evaluation in vitro was assessed in MLM.
The conditions of data set [3]: mouse.
Procedure: (§3) For mouse PK on peptides (4) and (5), blood concentrations versus time profiles were obtained from 2 groups of 3 male C57Bl/6 mice. In the intravenous PK group (n = 3), the compound was administered intravenous (i.v.) by bolus injection (5 mL/kg) at a dose of 1 mg/kg, solubilized in N-Methyl-2-pyrrolidone (10%) and blank plasma (90%). For oral PK, another group of 3 male C57Bl/6 mice, a dose of 3 mg/kg was orally applied (dosing volume of 10 mL/kg) as a homogenous suspension of water (99%), Tween80 (0.5%) and methylcellulose (0.5%).
(§4) For both rodents, blood samples (10–50 µL) were collected at 0.08 (i.v. only), 0.25, 0.5, 1, 2, 4, 7, and 24 h after dosing. […] Analyses of parent compound concentrations were carried out in blood using LC-MS/MS. An aliquot of 30 μL was taken and added to 200 μL MeCN (including Glyburide (c = 50 ng/mL) as internal standard) for protein precipitation. Sample analysis was performed on a LC–MS/MS system consisting of an AB SCIEX API 5500 QTrap mass spectrometer equipped with a TurboIonSpray™ interface (Framingham, USA). The MS system was connected to a HTS CTC PAL auto-sampler (Zwingen, Switzerland) and to a Flux Rheos 2200 pump system (Reinach, Switzerland). The supernatants (2 µL) were injected directly onto the LC-MS/MS system for analysis. The test articles and its internal standard were separated with a Phenomenex Kinetex C18 (50 × 2 mm ID, 2.7 µm pore size). A binary gradient with a mobile phase consisting of water (A) and acetonitrile (B) was used for the LC-separation. Both mobile phases (A) and (B) were acidified with 0.1% formic acid. The elution gradient program was as follows: [time (min), (% mobile phase B): (0, 95) (5.8, 85) (5.81, 99) (6.5, 99) (6.51, 95) (8, 95)]. The column temperature was maintained at 50 °C using a column heater. Under these experimental conditions, the LLOQ was 0.4 ng/mL.
Data set [4] can be described thus: physchem. As to conditions: pH 6.8, thermodynamic from solid.
Procedure: (§5) The values relate to single experiments. For the MDCK assay, the lower limit of quantification (LLOQ) was 5 nM, and for PAMPA 2 nM, respectively. […] This has been estimated by looking at independent replicates across the assay dynamic range.
Data set [5] in a line: in vitro. Conditions: mouse, microsomes.
Procedure: as §1, §2
The conditions of data set [6]: in vivo, cited from earlier work; for CL Mouse / Vss: iv, 2.1 mg/kg; for Vss / Tmax / T1/2term: mouse; for Tmax: po, 7.1 mg/kg.
For data set [7] the following is noted: mouse, microsomes.
Procedure: as §1, §2
The conditions of data set [8]: mouse, in vivo; for Vd / clearance: iv, 1 mg/kg; for Tmax: po.
Procedure: as §3, §4
Data set [9] in a line: in vivo. As to conditions: male, po.
Procedure: as §3, §4
Data set [10] is described as follows: in vitro. Conditions: dog, MDCK.
Procedure: as §5
The conditions of data set [11]: rat, in vivo, 3 mg/kg; for clearance: iv; for AUC: po.
Procedure: (§6) For rat PK, blood concentration versus time profiles were obtained from 3 male Sprague Dawley rats. For intravenous PK, the compound was administered intravenously by bolus injection (0.5 mL/kg) at a dose of 3 mg/kg, solubilized in N-Methyl-2-pyrrolidone (30%) and PEG200 (70%). For oral PK, after a washout period of 48 h, an oral gavage was administered to the same animals at a dose of 3 mg/kg at a dosing volume of 2.5 mL/kg. The oral dose was dispersed in water (99%), Tween80 (0.5%) and methylcellulose (0.5%), forming a homogenous suspension. For both rodents, blood samples (10–50 µL) were collected at 0.08 (i.v. only), 0.25, 0.5, 1, 2, 4, 7, and 24 h after dosing. To investigate the absorption and the impact of pre-systemic metabolism, the model of portal vein cannulation in rats was applied for compounds orally dosed in a cassette. The week before the PK experiments, the rats were surgically prepared with catheter implantation into the right jugular vein (for collection of blood from the systemic circulation) and the hepatic portal vein (for collection of blood from the portal vein, i.e. after intestinal absorption and metabolism and before liver pe-systemic metabolism). After recovery, the rats were orally dosed by gavage (same dose, volume and formulation as described above), and blood samples (50 µL) were collected at 0.25, 0.5, 1, 2, 4, 7, and 24 h concomitantly from the 2 blood vessels. Analyses of parent compound concentrations were carried out in blood using LC-MS/MS. An aliquot of 30 μL was taken and added to 200 μL MeCN (including Glyburide (c = 50 ng/mL) as internal standard) for protein precipitation. Sample analysis was performed on a LC–MS/MS system consisting of an AB SCIEX API 5500 QTrap mass spectrometer equipped with a TurboIonSpray™ interface (Framingham, USA). The MS system was connected to a HTS CTC PAL auto-sampler (Zwingen, Switzerland) and to a Flux Rheos 2200 pump system (Reinach, Switzerland). The supernatants (2 µL) were injected directly onto the LC-MS/MS system for analysis. The test articles and its internal standard were separated with a Phenomenex Kinetex C18 (50 × 2 mm ID, 2.7 µm pore size). A binary gradient with a mobile phase consisting of water (A) and acetonitrile (B) was used for the LC-separation. Both mobile phases (A) and (B) were acidified with 0.1% formic acid. The elution gradient program was as follows: [time (min), (% mobile phase B): (0, 95) (5.8, 85) (5.81, 99) (6.5, 99) (6.51, 95) (8, 95)]. The column temperature was maintained at 50 °C using a column heater. Under these experimental conditions, the LLOQ was 0.4 ng/mL.
(§7) Accordingly, we decided to conduct a hepatic portal vein (H.P.V.) study in Sprague Dawley rats due to the technical difficulties associated with a smaller species like mice. Rats were equipped with double jugular vein and hepatic portal vein cannulation. A standard jugular vein cannulation experiment was run in parallel as a control.
For data set [12] the following is noted: rat, in vivo, po, 3 mg/kg.
Procedure: as §6, §7

Take `CC(C)C[C@@H]1NC(=O)[C@H](Cc2ccc(O)cc2)NC(=O)[C@H]2CCCN2C(=O)[C@H](CC(C)C)NC(=O)[C@H](CC(C)C)NC(=O)[C@@H](CC(C)C)NC1=O` [(1), [Tyr-Leu-D-Leu-Leu-Leu-D-Pro-]] (cyclo(LL[dP]YL[dL])): in [1], the SFC is 4.8 min. This compound also gave a fraction unbound in [2] of 0.08. In addition, the “class for in vivo CL in mice” value in data set [3] is given as “high CL”. Also, the thermodynamic solubility in [4] was 151 µM (≈ 108 µg/mL). Besides, the intrinsic clearance (microsomal CLint) in data set [5] is 95 µL/min/mg. Further, in [6], the “CL Mouse” value was 82 ± 15 mL/min/kg, the distribution volume (Vss) is 0.8 ± 0.2 L/kg, the Tmax is 36 ± 18 min and the T1/2term is 12 ± 0 min.
Consider `CC(C)C[C@@H]1NC(=O)[C@H](Cc2ccc(O)cc2)N(C)C(=O)[C@H]2CCCN2C(=O)[C@H](CC(C)C)NC(=O)[C@H](CC(C)C)N(C)C(=O)[C@@H](CC(C)C)N(C)C1=O` [(2), [NMe-Tyr-Leu-NMe-D-Leu-NMe-Leu-Leu-D-Pro]] (cyclo(L[dNMeL][NMeL]L[dP][NMeY])), for which the SFC in data set [1] amounted to 4.1 min. Further, the free fraction (fraction unbound) in data set [2] was under 0.01. Further, the “clearance in the MLM assay (in words)” value in [7] is recorded as “medium clearance”. Moreover, the “class for in vivo CL in mice” value in data set [3] is “low CL”. In data set [4], this compound showed a thermodynamic solubility of 26 µM (≈ 19.6 µg/mL). In [5], the intrinsic metabolic clearance (microsomal CLint) came out at 63 µL/min/mg. Further, in [6], the “CL Mouse” value was 1 ± 0 mL/min/kg, the distribution volume (Vss) is on record as 0.4 ± 0.0 L/kg, the Tmax was 228 ± 186 min and the T1/2term was 1360 ± 324 min.
Turning to `CC(C)C[C@@H]1NC(=O)[C@H](Cc2ccccc2)NC(=O)[C@H]2CCCN2C(=O)[C@H](CC(C)C)NC(=O)[C@H](CC(C)C)N(C)C(=O)[C@@H](CC(C)C)N(C)C1=O` [(3), [Phe-Leu-NMe-D-Leu-NMe-Leu-Leu-D-Pro]] (cyclo(FL[dNMeL][NMeL]L[dP])), the “Log PAMPA” value is −4.0. Besides, in [1], the SFC is reported as 2.9 min. The same compound returned a fraction unbound in data set [2] of under 0.01. In data set [8], this compound had a half-life of 330 ± 24 min, a Vd of 0.6 ± 0.1 L/kg and a clearance of 2 mL/min/kg. Besides, the time to peak (Tmax) in data set [8] (7.5 mg/kg) is 18 ± 6 min. Besides, the “clearance in the MLM assay (in words)” value in data set [7] is given as “very high CL”. For the same compound, the “class for in vivo CL in mice” value in [3] is given as “low CL”. The same compound had a bioavailability in [9] (OF1, mouse) of 7 ± 2%. In data set [4], this compound gave a solubility (thermodynamic) of 30 µM (≈ 21.7 µg/mL). Also, the apparent permeability coefficient (Papp) in data set [10] came out at 11.6 ×10⁻⁶ cm/s. This compound had an intrinsic clearance (microsomal CLint) in [5] of 488 µL/min/mg.
For `CC[C@@H]1NC(=O)[C@H]2CCCN2C(=O)[C@H](CC(C)C)NC(=O)[C@H](CC(C)C)N(C)C(=O)[C@@H](CC(C)C)N(C)C(=O)[C@H](CC(C)C)NC1=O` [(4), [Abu-Leu-NMe-D-Leu-NMe-Leu-Leu-D-Pro]] (cyclo([Abu]L[dNMeL][NMeL]L[dP])), the “Log PAMPA” value was −4.3. In addition, the SFC in data set [1] was 2.7 min. For the same compound, the unbound share (fraction unbound) in data set [2] is under 0.01. Moreover, in data set [8], the half-life was 48 ± 12 min, the distribution volume (Vd) is 2.1 ± 0.2 L/kg and the clearance turned out to be 49 ± 14 mL/min/kg. Also, in data set [8] (3 mg/kg), the time of peak concentration (Tmax) stood at 18 min. In data set [11], this compound displayed a clearance of 41 mL/min/kg. For the same compound, the AUC in [11] (Jugular vein (AuC)) came out at 1.66 µM·h. Also, in data set [11] (Portal vein (AuC)), the AUC was determined as 1.84 µM·h. In addition, the “clearance in the MLM assay (in words)” value in [7] was “very high CL”. Further, in data set [3], the “class for in vivo CL in mice” value is given as “medium CL”. Further, the “Liver first pass effect” value in data set [12] came to 11%. The compound also had a bioavailability in [9] (C57BL/6, mouse) of 39 ± 4%. Moreover, in [4], the solubility (thermodynamic) amounted to 602 µM (≈ 399 µg/mL). In [10], this compound came in with a Papp of 4 ×10⁻⁶ cm/s. In [5], the intrinsic clearance (microsomal CLint) is 324 µL/min/mg.
Consider `CC(C)C[C@@H]1NC(=O)[C@H](C)NC(=O)[C@H]2CCCN2C(=O)[C@H](CC(C)C)NC(=O)[C@H](CC(C)C)N(C)C(=O)[C@@H](CC(C)C)N(C)C1=O` [(5), [Ala-Leu-NMe-D-Leu-NMe-Leu-Leu-D-Pro]] (cyclo(AL[dNMeL][NMeL]L[dP])), for which the “Log PAMPA” value is given as −4.6. The SFC in data set [1] turned out to be 2.8 min. Further, in data set [2], the fraction unbound is under 0.01. Further, in data set [8], the half-life was 24 ± 6 min, the Vd came to 2.8 ± 0.3 L/kg and the clearance amounted to 105 ± 26 mL/min/kg. For the same compound, the time of peak concentration (Tmax) in data set [8] (3 mg/kg) turned out to be 18 min. The compound also showed a clearance in data set [11] of 70 mL/min/kg. The AUC in [11] (Jugular vein (AuC)) was determined as 0.104 µM·h. The same compound yielded an area under the curve (AUC) in data set [11] (Portal vein (AuC)) of 0.449 µM·h. For the same compound, the “clearance in the MLM assay (in words)” value in data set [7] is listed as “very high CL”. Moreover, the “class for in vivo CL in mice” value in [3] is given as “high CL”. Further, the “Liver first pass effect” value in data set [12] is reported as 77%. Besides, the bioavailability in data set [9] (C57BL/6, mouse) came to 23 ± 4%. This compound showed a solubility (thermodynamic) in data set [4] of over 1000 µM. In data set [10], this compound had an apparent permeability (Papp) of 2.7 ×10⁻⁶ cm/s. The intrinsic metabolic clearance (microsomal CLint) in data set [5] was 654 µL/min/mg.

One may read the fraction unbound as free concentration divided by total concentration. Read a high fraction unbound as weak binding. What is called solubility (thermodynamic) is solubility found after equilibrating the solid with the medium. Broadly, the microsomal CLint is the capacity of the preparation to metabolise the compound, expressed as a volume cleared per time. Low values mean greater metabolic stability, high ones faster metabolism. For orientation: Vss means a proportionality between amount in the body and measured concentration, not a real space. For orientation: Tmax means the time at which the peak concentration occurs. The term half-life denotes how long it takes for the measured level to halve. The term Vd denotes a proportionality between amount in the body and measured concentration, not a real space. High values mean extensive tissue distribution, low ones confinement near the circulation. As a reminder, the clearance is the volume of plasma or blood freed of the substance per unit of time. A high value points to a high capacity for elimination. The bioavailability is the share of a dose that reaches the circulation, judged against a reference dose that is usually intravenous. One may read the Papp as the rate of passage across a membrane or cell layer, normalised by area and donor concentration. Lower therefore signals slow passage. Broadly, the AUC is the area under the concentration-time curve, a measure of exposure. Read a high AUC as more exposure.
